Data reported in article PMC6269914, “In Vitro Evaluation of Novel Inhibitors against the NS2B-NS3 Protease of Dengue Fever Virus Type 4” (Molecules, 2013).

What was measured:
DENV4 NS2B-NS3pro [1] = biological target: T1, DENV4 NS2B-NS3pro (Dengue virus type 4, UniProt Q2YHF0, DELINS1442-1474GGGGSGGGG); assay: In vitro inhibition assay of recombinant NS2B-NS3pro with fluorogenic AMC peptide substrate; assay type: biochemical, dengue virus type 4 (DENV4); settings: for Inhibition Activity: primary inhibition assay at a 100 μM concentration of inhibitors, Table S1; for Inhibition: inhibition activity at 100 μM, 1.65 µM AMC peptide substrate, Table 2
T1 sequence (Q2YHF0 1475-1660, added parts left off, stated change not applied): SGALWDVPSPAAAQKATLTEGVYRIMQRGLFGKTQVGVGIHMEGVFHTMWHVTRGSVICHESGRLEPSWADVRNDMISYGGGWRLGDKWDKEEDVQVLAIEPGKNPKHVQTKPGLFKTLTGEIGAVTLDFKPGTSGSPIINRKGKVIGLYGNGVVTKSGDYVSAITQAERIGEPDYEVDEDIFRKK

DENV4 NS2B-NS3pro [2] = biological target: T1, DENV4 NS2B-NS3pro; assay: Inhibitor enzyme kinetics (Lineweaver-Burk and Dixon plots) against NS2B-NS3pro; assay type: biochemical, dengue virus type 4 (DENV4); settings: AMC peptide substrates
Description: Inhibitory kinetic experiments were performed at different constant inhibitor concentrations and different substrate concentrations. Lineweaver–Burk and Dixon plots were used to analyze the inhibition modes of these compounds. Ki values were calculated from the Dixon plots.
The type of inhibition was determined using Lineweaver–Burk plots, and Ki values were determined with a Dixon plot (1/v as a function of [I], inhibitor concentration) from different inhibitor concentrations.

Compound | Inhibition Activity (DENV4 NS2B-NS3pro [1]) | Inhibition (DENV4 NS2B-NS3pro [1]) | Inhibition mode (DENV4 NS2B-NS3pro [2])
N-(3-(4-cyclohexylpiperazin-1-yl)propyl)-1-(5-(2-oxopyrrolidin-1-yl)-1,3,4-thiadiazol-2-yl)piperidine-3-carboxamide [Compound 23] | 17.71% | – | –
3-(((1-methyl-1H-tetrazol-5-yl)thio)methyl)-7-(2-(5-methyl-4-nitro-1H-pyrazol-1-yl)acetamido)-8-oxo-5-thia-1-azabicyclo[4.2.0]oct-2-ene-2-carboxylic acid [Compound 17] | 23.01% | – | –
N2,N2-dimethyl-6-(((4-methyl-5-((2-methyl-5-nitro-1H-imidazol-1-yl)methyl)-4H-1,2,4-triazol-3-yl)thio)methyl)-1,3,5-triazine-2,4-diamine [Compound 31] | 6.49% | – | –
(5,7-dimethyl-6-(3-methylbenzyl)pyrazolo[1,5-a]pyrimidin-3-yl)(4-(2,5-dimethylphenyl)piperazin-1-yl)methanone [Compound 6] | 8.61% | – | –
3,3'-(ethane-1,2-diyl)bis(2-(((7-chloro-4-oxo-4H-pyrido[1,2-a]pyrimidin-2-yl)methyl)thio)quinazolin-4(3H)-one) [Compound 35] | 48.66% | – | –
1-(5-(4-(4-(5-chloro-2-methylphenyl)piperazine-1-carbonyl)piperidin-1-yl)-1,3,4-thiadiazol-2-yl)pyrrolidin-2-one [Compound 18] | 0.15% | – | –
O=S(=O)(c1ccc(-c2csc(N3N=C(c4cccs4)CC3c3ccc(F)cc3)n2)cc1)N1CCCCC1 (centres unmarked) [Compound 12, 2-(5-(4-fluorophenyl)-3-(thiophen-2-yl)-4,5-dihydro-1H-pyrazol-1-yl)-4-(4-(piperidin-1-ylsulfonyl)phenyl)thiazole] | 85.17% | 85.2% | –
Cc1nc2sc(C(=O)c3ccc(-c4ccc(C(=O)c5sc6nc(C)c(C)c(C)c6c5N)cc4)cc3)c(N)c2c(C)c1C [Compound 10, [1,1'-biphenyl]-4,4'-diylbis((3-amino-4,5,6-trimethylthieno[2,3-b]pyridin-2-yl)methanone)] | 7.59% | – | –
5-(5,6-dibromo-1,3-dioxohexahydro-1H-4,7-methanoisoindol-2(3H)-yl)-2-morpholinobenzoic acid [Compound 13] | 5.55% | – | –
CCN(CC)CCn1c(NC(=O)c2ccc(Cn3nc([N+](=O)[O-])c(Cl)c3C)o2)nc2ccccc21 [Compound 2, 5-((4-chloro-5-methyl-3-nitro-1H-pyrazol-1-yl)methyl)-N-(1-(2-(diethylamino)ethyl)-1H-benzo[d]imidazol-2-yl)furan-2-carboxamide] | 95.23% | – | competitive inhibitors
N-(3-(4-ethylpiperazin-1-yl)propyl)-1-(5-(2-oxopyrrolidin-1-yl)-1,3,4-thiadiazol-2-yl)piperidine-3-carboxamide [Compound 30] | 1.3% | – | –
2-((4aR,5R,5aR,8aR,9S)-2,6,8-trioxo-3,10-diphenyl-2,3,4a,5,5a,6,8a,9,9a,10-decahydro-5,9-methanothiazolo[5',4':5,6]thiopyrano[2,3-f]isoindol-7(8H)-yl)acetic acid [Compound 34] | 39.67% | – | –
O=C(Nc1ccc(Br)cc1C(=O)c1ccccc1)c1cccc(Nc2nc(-c3ccccc3)c3cc(Br)ccc3n2)c1 [Compound 7, N-(2-benzoyl-4-bromophenyl)-3-((6-bromo-4-phenylquinazolin-2-yl)amino)benzamide] | 21.31% | – | –
O=C1c2ccc(-n3c(=O)c4cc5c(=O)n(-c6ccc7c(c6)C(=O)N(c6ccccc6)C7=O)c(=O)c5cc4c3=O)cc2C(=O)N1c1ccccc1 [Compound 4, 2,6-bis(1,3-dioxo-2-phenylisoindolin-5-yl)pyrrolo[3,4-f]isoindole-1,3,5,7(2H,6H)-tetraone] | 4.64% | – | –
Nc1nonc1-c1nc2ccccc2n1Cc1ccc(Cn2c(-c3nonc3N)nc3ccccc32)cc1 [Compound 25, 4,4'-(1,1'-(1,4-phenylenebis(methylene))bis(1H-benzo[d]imidazole-2,1-diyl))bis(1,2,5-oxadiazol-3-amine)] | 36.45% | – | –
COc1cccc(-n2nc(C(=O)NC3CCCCCC3)c3ccccc3c2=O)c1 [Compound 9, N-cycloheptyl-3-(3-methoxyphenyl)-4-oxo-3,4-dihydrophthalazine-1-carboxamide] | 23.33% | – | –
Cc1cccc(-c2nc3nc(C)cc(Nc4ccc(CC(=O)O)cc4)n3n2)c1 [Compound 15, 2-(4-((5-methyl-2-(m-tolyl)-[1,2,4]triazolo[1,5-a]pyrimidin-7-yl)amino)phenyl)acetic acid] | 17.36% | – | –
N-cycloheptyl-2,5-dimethyl-4-(4-(pyridin-2-yl)piperazin-1-yl)thieno[2,3-d]pyrimidine-6-carboxamide [Compound 28] | 32.84% | – | –

Compound | Inhibition Activity (DENV4 NS2B-NS3pro [1]) | Inhibition (DENV4 NS2B-NS3pro [1]) | Inhibition mode (DENV4 NS2B-NS3pro [2])
Cc1nn(-c2ccccc2)c2c1nc(CCC(=O)NCCN1CCN(C)CC1)c(=O)n2C [Compound 24, 3-(3,7-dimethyl-6-oxo-1-phenyl-6,7-dihydro-1H-pyrazolo[3,4-b]pyrazin-5-yl)-N-(2-(4-methylpiperazin-1-yl)ethyl)propanamide] | 29.46% | – | –
2-(3-fluorophenyl)-7-((2-(3-fluorophenyl)-4-oxo-4H-benzo[d][1,3]oxazin-6-yl)methyl)-4H-benzo[d][1,3]oxazin-4-one [Compound 36] | 34.33% | – | –
4-(2,6-bis(3-hydroxyphenyl)-1,3,5,7-tetraoxo-1,2,3,5,6,7-hexahydropyrrolo[3,4-f]isoindole-4-carbonyl)benzoic acid [Compound 1] | 15.05% | – | –
N-(1,5-dimethyl-3-oxo-2-phenyl-2,3-dihydro-1H-pyrazol-4-yl)-2-((5,9-dimethyl-[1,2,4]triazolo[4,3-a]quinolin-1-yl)thio)acetamide [Compound 26] | 28.11% | – | –
Cc1nnc2c(Nc3cccc(C(=O)O)c3)nc3ccc(C(=O)c4ccccc4)cc3n12 [Compound 5, 3-((8-benzoyl-1-methyl-[1,2,4]triazolo[4,3-a]quinoxalin-4-yl)amino)benzoic acid] | 58.83% | 58.8% | –
N-(4-((2-(benzo[d][1,3]dioxol-5-yl)-1,3-dioxoisoindolin-5-yl)oxy)phenyl)-1-oxo-4-phenyl-1H-isochromene-3-carboxamide [Compound 20] | 28.87% | – | –
O=C(NCCN1CCCCC1)c1cccc(Nc2ccc(-c3cccc(F)c3)nn2)c1 [Compound 29, 3-((6-(3-fluorophenyl)pyridazin-3-yl)amino)-N-(2-(piperidin-1-yl)ethyl)benzamide] | 66.55% | 66.6% | –
Cc1cccc(C)c1-n1c(SCc2cc(=O)n3cc(Cl)ccc3n2)nc2c(sc(=S)n2-c2c(C)cccc2C)c1=O [Compound 22, 5-[[(7-chloro-4-oxo-4H-pyrido[1,2-a]pyrimidin-2-yl)methyl)sulfanyl)-3,6-bis(2,6-dimethylphenyl)-2-thioxo-2,3-dihydro[1,3]thiazolo[4,5-d]pyrimidin-7(6H)-one] | 91.65% | – | competitive inhibitors
2-(1-isobutyl-5,5-dimethyl-3-(naphthalen-1-yl)-2-oxoimidazolidin-4-yl)-4-(naphthalen-1-yl)-1,2,4-oxadiazolidine-3,5-dione [Compound 16] | 33.28% | – | –
O=C(O)CCCNc1cc(N2CCCCCC2)c2noc3c2c1C(=O)c1ccccc1-3 [Compound 27, 4-((3-(azepan-1-yl)-6-oxo-6H-anthra[1,9-cd]isoxazol-5-yl)amino)butanoic acid] | 82.53% | 82.5% | –
N-(3-(piperidin-1-yl)propyl)-1-(6-(p-tolyl)imidazo[2,1-b][1,3,4]thiadiazol-2-yl)piperidine-3-carboxamide [Compound 8] | 33.48% | – | –
COC(=O)CSc1ncn(-c2nc(N3CCCCC3)nc(N3CCCCC3)n2)n1 [Compound 19, methyl 2-((1-(4,6-di(piperidin-1-yl)-1,3,5-triazin-2-yl)-1H-1,2,4-triazol-3-yl)thio)acetate] | 10.28% | – | –
1-(4-(2,5-dimethylphenyl)piperazin-1-yl)-4-(10-methylbis([1,2,4]triazolo)[4,3-a:1',5'-c]quinazolin-3-yl)butan-1-one [Compound 3] | 2.61% | – | –
O=C1c2ccccc2C(=O)N1c1cccc(-c2csc(N3N=C(c4ccccc4)CC3c3ccccc3)n2)c1 (centres unmarked) [Compound 21, 2-(3-(2-(3,5-diphenyl-4,5-dihydro-1H-pyrazol-1-yl)thiazol-4-yl)phenyl)isoindoline-1,3-dione] | 21.27% | – | –
C(=C\CSc1nnc(-c2ccccc2)c(-c2ccccc2)n1)/CSc1nnc(-c2ccccc2)c(-c2ccccc2)n1 [Compound 33, (E)-1,4-bis((5,6-diphenyl-1,2,4-triazin-3-yl)thio)but-2-ene] | 40.52% | – | –
N-(1-benzyl-1H-benzo[d]imidazol-2-yl)-5-((3-nitro-1H-1,2,4-triazol-1-yl)methyl)furan-2-carboxamide [Compound 32] | 45.55% | – | –
4-((4aR,5R,5aR,8aR,9S)-10-(4-(tert-butyl)phenyl)-2,6,8-trioxo-2,3,4a,5,5a,6,8a,9,9a,10-decahydro-5,9-methanothiazolo[5',4':5,6]thiopyrano[2,3-f]isoindol-7(8H)-yl)butanoic acid [Compound 11] | 12.46% | – | –
